Test results as given in patent US20140031388A1, “AKT INACTIVATION BY TOCOPHERYL DERIVATIVES” (priority 2012, published 2014).
Like-named read-outs stand apart in the source and are kept apart here.

Tests used:
[1] = system: PC-3 cells; assay: MTT viability assay, PC-3; format: cell-based; conditions: Homo sapiens
Protocol: The prostate cancer cell lines, LNCaP and PC-3, were purchased from American Type Culture Collection (Manassas, Va.) and maintained in RPMI 1640 medium containing 10% heat-inactivated fetal bovine serum at 37° C. in a humidified incubator containing 5% CO2. The LNCaP-abl cells were a generous gift from Dr. Qianben Wang (The Ohio State University). Normal prostate epithelial cells were purchased from Lonza (Walkersville, Md.) and were cultured in the vendor-recommended defined prostate epithelial cell growth medium. For experiments, LNCaP cells were plated on poly-D-lysine-coated culture flasks at a density of 12,000 cells per cm^2 surface area for 24 hours, followed by treatment with test agents in serum-free RPMI 1640 medium. The α- and γ-tocopherols were purchased from Sigma-Aldrich (St. Louis, Mo.). The tocopherol derivatives, α- and γ-VE5, were synthesized by the inventors.
LNCaP cells were plated into poly-D-lysine-coated 96-well plates and PC-3 and LNCaP-abl cells into uncoated plates at the density of 5,000 cells per well in the presence of 10% FBS. Normal prostate epithelial cells were plated into uncoated plates at a density of 8,000 cells per well. […] After 24 hours of treatment, cells were incubated with MTT [3-(4,5-dimethylthiazol-2-yl)-2,5-diphenyl-2H-tetrazolium bromide] (TCI America; 0.5 mg/ml, final concentration) for an additional 2 hours. The medium was then removed from each well and replaced with DMSO to dissolve the reduced MTT dye for subsequent colorimetric measurement of absorbance at 595 nm. Cell viabilities are calculated as percentages of that in the corresponding vehicle-treated control group.

[2] = system: phosphorylation of Ser473 in Akt; assay: Western blot of Akt phosphorylation at Ser473; format: cell-based; conditions: LNCaP and PC-3 cells, Thr308 not altered
Protocol: Cells were exposed to the test agents in 10-cm dishes for 24 hours and then collected by scraping. The cell pellets were washed once with PBS, and then lysed at 4° C. over 30 min of incubation in a sodium dodecyl sulfate (SDS) lysis buffer containing 1% SDS, 50 mM Tris HCl (pH 8.1), 10 mM EDTA and […] protease inhibitor cocktail (Sigma-Aldrich). The cell debris was pelleted by centrifugation for 20 min at 14,000×g, and 1 μl of each supernatant was used for determination of protein concentration using a colorimetric bicinchoninic assay (Pierce, Rockford, Ill.). The remaining sample was added to equal volume of 2×SDS-polyacrylamide gel electrophoresis sample loading buffer (62.5 mM Tris-HCl, pH 6.8, 4% SDS, 5% β-mercaptoethanol, 20% glycerol, 0.1% bromophenol blue), followed by incubation in boiling water for 5 min. Equivalent amounts of total protein were resolved in SDS-polyacrylamide gels, and then transferred to nitrocellulose membranes using a semidry transfer cell. The transblotted membrane was washed twice with Tris-buffered saline containing 0.1% Tween 20 (TBST). After blocking with TBST containing 5% nonfat milk for 40 min, the membrane was incubated with the appropriate primary antibody (1:1000) in TBST-1% nonfat milk at 4° C. overnight. The membrane was then washed three times with TBST for a total of 15 min, followed by incubation with goat anti-rabbit or anti-mouse IgG-horseradish peroxidase conjugates (1:2000) for 1 hour at room temperature and four washes with TBST for a total of 1 hour. The immunoblots were visualized by enhanced chemiluminescence (GE Healthcare Life Sciences).

[3] = biological target: T1, PH domain of PDK1 (GST-PH domain fusion protein) (Homo sapiens, UniProt O15530); assay: Surface plasmon resonance binding, PDK1 PH domain; conditions: SPR; means (n = 3) ± SD; read-out: Kd, PDK1 PH domain
T1 construct: made in house
T1 sequence (O15530 459-550 limits assumed): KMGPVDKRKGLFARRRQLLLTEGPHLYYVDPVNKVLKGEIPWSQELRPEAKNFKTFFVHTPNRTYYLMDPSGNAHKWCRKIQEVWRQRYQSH
Source text: The cDNA fragments corresponding to the putative PH domain sequences of PHLPP1 (+115 to +372), PDK1 (+1225 to +1671), Akt1 (+1 to +447) and ILK (+538 to +646) were PCR-amplified using the plasmids pcDNA-HA-PHLPP1, pWZL-Neo-Myr-FLAG-PDPK1, pcDNA-HA-PKB-T308D-S473D, and pCMV-SPORT-ILK (Addgene) as templates. The PCR products were then cloned into EcoRI/XhoI sites of the pGEX-4T1 expression vector (GE Healthcare Life Sciences) to generate four constructs (pGEX-4T1-PHLPP1, pGEX-4T1-PDPK1, pGEX-4T1-AKT1, pGEX-4T1-ILK) for the expression of GST-PH domain fusion proteins. The mutated Akt1 Y38G PH domain was generated from pGEX-4T1-AKT1 by site-directed mutagenesis using the QuikChange II XL Site-Directed Mutagenesis Kit (Agilent Technologies). The expression and purification of GST-PH domain fusion proteins were performed essentially as described previously. Thomas et al., Curr Biol 12, 1256 (2002). The purified PH domains were analyzed by SDS-PAGE using an overloaded gel with purities were estimated to be >95% using ImageJ software.
(§1) Binding experiments were performed using a Biacore T100 system (GE Healthcare, Piscataway, N.J.). The GST-PH domain fusion proteins were immobilized on a CM5 S Sensorchip using Biacore's Amine Coupling Kit to a level of 17,000 response units. VE5 compounds and di-octanoyl PIP3 at concentrations ranging from 0.1 to 100 μM and 1 to 20 μm, respectively, were injected at a high flow rate (30 μL/min) over the biosensor surface for binding analyses. DMSO concentrations in all samples and running buffer were 1% (v/v) or less. Data were analyzed using Biacore T100 Evaluation Software.

[4] = biological target: VL2-deleted mutant of the PH domain of Akt (Homo sapiens, UniProt P31749); assay: Surface plasmon resonance binding, VL2-deleted Akt PH domain; conditions: SPR
Chain of VL2-deleted mutant of the PH domain of Akt (P31749 whole entry, looked up, stated change not applied, the tested form may be a part): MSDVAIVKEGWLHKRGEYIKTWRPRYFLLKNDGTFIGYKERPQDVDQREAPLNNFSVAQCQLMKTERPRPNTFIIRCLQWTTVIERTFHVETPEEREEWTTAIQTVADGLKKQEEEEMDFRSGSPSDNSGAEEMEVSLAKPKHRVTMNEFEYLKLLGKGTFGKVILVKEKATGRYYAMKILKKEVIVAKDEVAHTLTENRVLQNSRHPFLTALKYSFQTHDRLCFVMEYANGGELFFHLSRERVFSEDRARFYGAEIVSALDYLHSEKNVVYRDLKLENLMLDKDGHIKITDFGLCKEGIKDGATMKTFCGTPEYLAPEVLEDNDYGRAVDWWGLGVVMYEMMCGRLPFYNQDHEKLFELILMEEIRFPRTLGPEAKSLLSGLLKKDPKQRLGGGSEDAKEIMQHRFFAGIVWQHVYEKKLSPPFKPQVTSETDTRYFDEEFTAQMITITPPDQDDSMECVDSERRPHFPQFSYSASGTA
Protocol: as §1

| IC50 ([1]; PC-3, 1% FBS-containing or serum-free RPMI 1640 medium for 24 h, read-out: IC50 (μM) PC-3) | Kd [3] | IC50 ([1]; PC-3, 24 h, 1% FBS-containing or serum-free RPMI 1640 medium for 24 h, read-out: IC50 (μM) PC-3) | IC50 ([1]; PC-3, Table 3, antitumor activities against PC-3 cells, read-out: IC50) | Kd [4] | Structure (SMILES) | effect on phosphorylation of Akt at Ser473 [2] |
| --- | --- | --- | --- | --- | --- | --- |
| 15 µM | 19.3 ± 0.6 µM | – | – | – | Cc1c(C)c2c(c(C)c1O)CC[C@@](C)(CCCC(C)C)O2 [α-VE5, (R)-2,5,7,8-tetramethyl-2-(4-methylpentyl)-chroman-6-ol] | parallel reduction |
| – | 12.4 ± 0.1 µM | 8 µM | 8.5 µM | 30 ± 4 µM | Cc1c(O)cc2c(c1C)O[C@](C)(CCCC(C)C)CC2 [γ-VE5, (R)-2,7,8-trimethyl-2-(4-methylpentyl)-chroman-6-ol] | parallel reduction |
